Test results: patent US20240131032A1, “AN ACTIVITY-GUIDED MAP OF ELECTROPHILE-CYSTEINE INTERACTIONS IN PRIMARY HUMAN IMMUNE CELLS” (The Scripps Research Institute, priority 2019, published 2024)

Legend:
NuRD complex = test: Western blot of NuRD complex members in T cells; format: cell-based, human; settings: BPK-25 10 μM
Experimental: FIG. 7B is a scatter plot representation of protein abundance changes caused by BPK-25 (10 μM, 24 h) in two independent replicate experiments, with decreases in NuRD complex components highlighted in red. FIG. 7C is a heatmap of top proteins with decreased abundance in BPK-25-treated T cells showing that the subset of these proteins in the NuRD complex (asterisks) were largely unaltered by other active compounds and blocked in their degradation by co-treatment with the proteasome inhibitor MG132. […] FIG. 7E is a bar graph […] showing time-dependent reductions in NuRD complex members in human T cells treated with BPK-25 (10 μM). Left, representative western blots. Right, quantification of changes in protein. […]
BPK-25 (10 μM) treated expanded T cells were washed with PBS before permeabilization by rotation at 4° C. for 10 min with cytoplasm lysis buffer (10 mM sodium phosphate pH 7.4, 25 mM KCl, 1.5 mM MgCl2, 10% glycerol, and 0.025% NP40 supplemented with 1×HALT protease inhibitor cocktail (Thermo Scientific)). […] Insoluble material was precipitated by centrifugation (12,000 g, […]) and the protein concentration of nuclear extracts was measured using standard BCA assay (Thermo Scientific) and normalized. […] Blots were imaged using fluorescence-labeled secondary antibodies (LI-COR) on the Odyssey CLx Imager.

BIRC3 [1] = target: T1, BIRC3 (Homo sapiens, UniProt Q13489, C28A); test: Western blot of BIRC3 content in human T cells; format: cell-based; settings: EV-3 10 μM, 24 h; transfected primary human T cells
T1 construct: endogenous in cells; host or cells: primary human T cells
T1 sequence (Q13489 whole entry C28A): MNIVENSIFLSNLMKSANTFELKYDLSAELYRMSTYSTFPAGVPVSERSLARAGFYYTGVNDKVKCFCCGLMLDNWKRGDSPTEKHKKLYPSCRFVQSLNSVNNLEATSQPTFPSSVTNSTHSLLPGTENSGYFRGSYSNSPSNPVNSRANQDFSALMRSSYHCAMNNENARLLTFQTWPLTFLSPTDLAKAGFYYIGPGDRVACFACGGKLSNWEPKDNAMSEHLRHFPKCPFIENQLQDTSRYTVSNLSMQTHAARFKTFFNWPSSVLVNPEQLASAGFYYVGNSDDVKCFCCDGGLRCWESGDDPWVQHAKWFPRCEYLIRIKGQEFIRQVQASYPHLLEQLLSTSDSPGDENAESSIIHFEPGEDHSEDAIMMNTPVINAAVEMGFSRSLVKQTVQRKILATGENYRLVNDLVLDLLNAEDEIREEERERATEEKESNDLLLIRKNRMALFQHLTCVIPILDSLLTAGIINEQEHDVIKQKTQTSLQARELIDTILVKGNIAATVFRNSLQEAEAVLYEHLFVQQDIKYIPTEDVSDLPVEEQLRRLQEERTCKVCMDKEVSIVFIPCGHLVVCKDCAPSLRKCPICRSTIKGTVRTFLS

BIRC3 [2] = target: T2, BIRC3 (Homo sapiens, UniProt Q13489); test: isoTOP-ABPP and TMT-ABPP cysteine engagement, BIRC3; format: binding
T2 construct: endogenous in cells; host or cells: primary human T cells
T2 sequence (Q13489 whole entry): as the sequence (Q13489 whole entry C28A) above, with A28C counted along it
Experimental: Activated or expanded T cells were re-suspended in RPMI media supplemented with 10% FBS, L-glutamine (2 mM), penicillin (100 U/mL), and streptomycin (100 μg/mL) at 2×10^6 cells/mL. The compounds were added to cells as 1000×DMSO stocks and mixed well with the media by pipetting up and down after addition. The cells were kept at 37° C. in 5% CO2 containing incubators for 3 h (or otherwise specified times), then pelleted by centrifugation (524 g, 5 min, 4° C.), washed with cold PBS (10 mL) and transferred to Eppendorf tubes (1 mL PBS). The cells were pelleted again (524 g, 5 min, 4° C.), flash-frozen, and kept at −80° C. until further analysis.
Activated or expanded primary human T cells were re-suspended in RPMI (1×10^6 cells/mL) containing 10% fetal bovine serum (FBS), penicillin (100 U/mL), streptomycin ([…]), and L-glutamine (2 mM). […] The resulting proteomes were analyzed by competitive isotopic Tandem Orthogonal Proteolysis Activity-Based Protein Profiling (isoTOP-ABPP). […]
The heavy/light isoTOP-ABPP ratios (R values) for each unique peptide (DMSO/compound treated) were quantified with in-house CIMAGE software (Weerapana et al., 2010) using default parameters (3 MS1 acquisitions per peak and signal to noise threshold set to 2.5). Site-specific engagement of cysteine residues was assessed by blockade of IA-alkyne probe labeling. […]

Compound	time of initial changes in NuRD complex proteins (NuRD complex) [h]	time of maximal effects on NuRD complex proteins (NuRD complex) [h]	FLAG-tagged BIRC3 C28A mutant content (BIRC3 [1])	engagement of C28 of BIRC3 (BIRC3 [2])
C=CC(=O)N(Cc1cccc(Cl)n1)c1ccc(C(=O)Nc2ccccc2)nc1 [BPK-25]	6	24		
O=C(CCl)N1CCN(S(=O)(=O)c2ccc(-c3ccncc3)cc2)CC1 [EV-3]			but not cysteine mutants	unique target
